The assay relates to HepG2 cells. Kind of assay: Sulf2 silencing and Sorafenib in liver cancer cell model. The class given is cell-based. Conditions: Homo sapiens, Sorafenib exposure 72 h, read-out: IC50 in inhibiting tumor growth (Sorafenib). As to the method:
The effect of Sulf2 silencing in combination with Sorafenib in a liver cancer cell model (HepG2 cells) was studied. HepG2 cells incubated with various concentrations of SULF2_1 siRNA for 96 h, and Sorafenib (404) was added after 24 h to allow exposure for 72 h.

For the compound `CNC(=O)c1cc(Oc2ccc(NC(=O)Nc3ccc(Cl)c(C(F)(F)F)c3)cc2)ccn1` [Sorafenib, sorafenib], the IC50 is roughly 4 µM.

Usually IC50 stands for the concentration that inhibits the measured activity by half.
